Counter-ions that a name gives are not always drawn.

One test concerns HCT116 cells. Nature of the test: HCT116 cytotoxic activity assay (Alamar Blue, 72 h). Format: cell-based. To be noted: Homo sapiens, HCT-116, 72 h compound exposure, greater than 500 nM but less than or equal to 2 μM. On the procedure:
Representative compounds of this invention were tested for cytotoxicity using the above-described assay procedure with the following results: […]
Molecule `Nc1nc(Nc2ccc(Oc3c(F)cncc3F)cc2)cc(-c2ccccc2)n1` [Example 5, N^4-{4-[(3,5-difluoropyridin-4-yl)oxy]phenyl}-6-phenylpyrimidine-2,4-diamine] displayed an IC50 of 500 to 2000 nM.
Still for that read-out and setting: the value for `CNC(=O)c1cc(Oc2ccc(Nc3cc(-c4ccoc4)nc(N)n3)cc2)ccn1` [Example 10, 4-(4-{[2-amino-6-(3-furyl)pyrimidin-4-yl]amino}-phenoxy)-N-methylpyridine-2-carboxamide] was 500 to 2000 nM; that for `Nc1nc(Nc2ccc(Oc3ccc(Cl)cc3)cc2)cc(-c2ccccc2)n1` [Example 12, N^4-[4-(4-chlorophenoxy)phenyl]-6-phenylpyrimidine-2,4-diamine] was 500 to 2000 nM; that for `COCCNC(=O)c1cc(Oc2ccc(Nc3cc(-c4ccccc4)nc(N)n3)cc2)ccn1` [Example 23, 4-{4-[(2-amino-6-phenylpyrimidin-4-yl)amino]phenoxy}-N-(2-methoxyethyl)pyridine-2-carboxamide] was 500 to 2000 nM.
Still for that read-out and setting: the value for `CN1CCN(C(=O)c2cc(Oc3ccc(Nc4cc(-c5ccccc5)nc(N)n4)cc3)ccn2)CC1` [Example 26, N4*-[4-({2-[(4-methylpiperazin-1-yl)carbonyl]pyridin-4-yl}oxy)phenyl]-6-phenylpyrimidine-2,4-diamine trifluoroacetate] was 500 to 2000 nM; that for `CCNc1nc(Nc2ccc(Oc3ccnc(C(F)(F)F)c3)cc2)cc(-c2cccc(OC)c2)n1` [Example 30, N^2-ethyl-6-(3-methoxy-phenyl)-N^4-[4-(2-trifluoromethyl-pyridin-4-yloxy)-phenyl]-pyrimidine-2,4-diamine] was 500 to 2000 nM; that for `Nc1nc(Nc2ccc(Oc3ccnc(OCCN4CCOCC4)c3)cc2)cc(-c2ccccc2)n1` [Example 32, N^4-{4-[2-(2-morpholin-4-yl-ethoxy)-pyridin-4-yloxy]-phenyl}-6-phenyl-pyrimidine-2,4-diamine] was 500 to 2000 nM.
The same measure, in the same setting: the figure for `Nc1nc(Nc2ccc(Oc3ccnc(CNC(=O)c4ccc(F)cc4)c3)cc2)cc(-c2ccccc2)n1` [Example 41, N-[(4-{4-[(2-amino-6-phenylpyrimidin-4-yl)amino]phenoxy}pyridin-2-yl)methyl]-4-fluorobenzamide] is 500 to 2000 nM.
In turn, `CCN(CC)C(=O)NCc1cc(Oc2ccc(Nc3cc(-c4ccccc4)nc(N)n3)cc2)ccn1` [Example 42, N′-[(4-{4-[(2-amino-6-phenylpyrimidin-4-yl)amino]phenoxy}pyridin-2-yl)methyl]-N,N-diethylurea] returned an IC50 of 500 to 2000 nM.
Turning to `Nc1nc(Nc2ccc(Oc3ccnc(C4=NCCN4)c3)cc2)cc(-c2ccccc2)n1` [Example 47, N^4-{4-[2-(4,5-Dihydro-1H-imidazol-2-yl)pyridin-4-yloxy]phenyl}-6-phenylpyrimidine-2,4-diamine], the IC50 was 500 to 2000 nM.

Staying with this test, now noted: Homo sapiens, HCT-116, 72 h compound exposure, greater than 2 μM.
Turning to `COC[C@@H]1CCCN1c1ccnc(Oc2ccc(Nc3cc(-c4ccccc4)nc(N)n3)cc2)c1` [Example 43], the half-maximal inhibitory concentration (IC50) was > 2000 nM.
As for `CC(C)NCc1cc(Oc2ccc(Nc3cc(-c4ccccc4)nc(N)n3)cc2)ccn1` [Example 44, N^4-[4-({2-[(isopropylamino)methyl]pyridin-4-yl}oxy)phenyl]-6-phenylpyrimidine-2,4-diamine], the IC50 was > 2000 nM.

Staying with this test, now noted: Homo sapiens, HCT-116, 72 h compound exposure, less than or equal to 500 nM.
Regarding `CCc1cc(Oc2ccc(Nc3cc(-c4ccccc4)nc(N)n3)cc2)ccn1` [Example 1, N^4-{4-[(2-ethylpyridin-4-yl)oxy]phenyl}-6-phenyl-pyrimidine-2,4-diamine], the IC50 is ≤ 500 nM.
Consider `Cc1cc(Oc2ccc(Nc3cc(-c4ccccc4)nc(N)n3)cc2)ccn1` [Example 2, N^4-{4-[(2-methylpyridin-4-yl)oxy]phenyl}-6-phenylpyrimidine-2,4-diamine], for which the IC50 was ≤ 500 nM.
Same read-out and setting: the figure for `NC(=O)c1cc(Oc2cccc(Nc3cc(-c4ccccc4)nc(N)n3)c2)ccn1` [Example 3, 4-{3-[(2-amino-6-phenylpyrimidin-4-yl)amino]phenoxy}pyridine-2-carboxamide] is ≤ 500 nM; for `CNC(=O)c1cc(Oc2cccc(Nc3cc(-c4ccccc4)nc(N)n3)c2)ccn1` [Example 4, 4-{3-[(2-amino-6-phenylpyrimidin-4-yl)amino]phenoxy}-N-methylpyridine-2-carboxamide] it is ≤ 500 nM.
In the case of `N#Cc1cc(Oc2ccc(Nc3cc(-c4ccccc4)nc(N)n3)c(F)c2)ccn1` [Example 6, 4-{4-[(2-amino-6-phenylpyrimidin-4-yl)amino]-3-fluorophenoxy} pyridine-2-carbonitrile hydrochloride], the IC50 was ≤ 500 nM.
Turning to `Cc1cc(Oc2ccc(Nc3cc(-c4ccccc4)nc(N)n3)cc2F)ccn1` [Example 7, N^4-{3-fluoro-4-[(2-methylpyridin-4-yl)oxy]phenyl}-6-phenylpyrimidine-2,4-diamine], the IC50 is ≤ 500 nM.
Turning to `N#Cc1cc(Oc2ccc(Nc3cc(-c4ccccc4)nc(N)n3)cc2)ccn1` [Example 8, 4-{4-[(2-amino-6-phenylpyrimidin-4-yl)amino]phenoxy}pyridine-2-carbonitrile], the IC50 was ≤ 500 nM.
With `CNC(=O)c1cc(Oc2cccc(Nc3cc(-c4ccoc4)nc(N)n3)c2)ccn1` [Example 9, 4-(3-{[2-amino-6-(3-furyl)pyrimidin-4-yl]amino}phenoxy)-N-methylpyridine-2-carboxamide], the IC50 was ≤ 500 nM.
Same read-out and setting: the value for `Nc1nc(Nc2ccc(Oc3ccc([N+](=O)[O-])cc3)cc2)cc(-c2ccccc2)n1` [Example 11, N^4-[4-(4-nitrophenoxy)phenyl]-6-phenylpyrimidine-2,4 diamine] was ≤ 500 nM.
As for `COc1ccc(Oc2ccc(Nc3cc(-c4ccccc4)nc(N)n3)cc2)cc1` [Example 13, N^4-[4-(4-methoxyphenoxy)phenyl]-6-phenylpyrimidine-2,4-diamine], the IC50 was ≤ 500 nM.
`COC(=O)c1cc(Oc2ccc(Nc3cc(-c4ccccc4)nc(N)n3)cc2)ccn1` [Example 19, methyl 4-{4-[(2-amino-6-phenylpyrimidin-4-yl)amino]phenoxy}pyridine-2-carboxylate]: the IC50 is ≤ 500 nM.
Regarding `Nc1nc(Nc2ccc(Oc3ccnc(C(=O)N4CCOCC4)c3)cc2)cc(-c2ccccc2)n1` [Example 21, N^4-(4-{[2-(morpholin-4-ylcarbonyl)pyridin-4-yl]oxy}phenyl)-6-phenylpyrimidine-2,4-diamine], the IC50 is ≤ 500 nM.
Still for that read-out and setting: the figure for `Nc1nc(Nc2ccc(Cc3ccnc(C(F)(F)F)c3)cc2)cc(-c2ccccc2)n1` [Example 33, 6-phenyl-N^4-[4-(2-trifluoromethyl-pyridin-4-ylmethyl)-phenyl]-pyrimidin-2,4-diamine] is ≤ 500 nM.
`Nc1nc(Nc2ccc(Cc3ccnc(Cl)c3)cc2)cc(-c2ccccc2)n1` [Example 34, N4*-{4-[(2-chloropyridin-4-yl)methyl]phenyl}-6-phenylpyrimidine-2,4-diamine]: the IC50 was ≤ 500 nM.
For the molecule `N#Cc1cc(Cc2ccc(Nc3cc(-c4ccccc4)nc(N)n3)cc2)ccn1` [Example 35, 4-[4-(2-amino-6-phenyl-pyrimidin-4-ylamino)-benzyl]-pyridine-2-carbonitrile], the 50% inhibitory concentration (IC50) was ≤ 500 nM.
The same measure, in the same setting: the value for `Nc1nc(Nc2ccc(Oc3ccnc(C(F)(F)F)c3)cc2)cc(-c2ccccc2)n1` [Example 37, 6-phenyl-N^4-(4-{[2-(trifluoromethyl)pyridin-4-yl]oxy}phenyl)pyrimidine-2,4-diamine] was ≤ 500 nM; that for `Nc1nc(Nc2ccc(Oc3cc[n+]([O-])c(C(F)(F)F)c3)cc2)cc(-c2ccccc2)n1` [Example 38, N^4-(4-{[1-oxido-2-(trifluoromethyl)pyridin-4-yl]oxy}phenyl)-6-phenylpyrimidine-2,4-diamine] was ≤ 500 nM.
On the same count and under the same terms, the figure for `CS(=O)(=O)NCc1cc(Oc2ccc(Nc3cc(-c4ccccc4)nc(N)n3)cc2)ccn1` [Example 40, N-[(4-{4-[(2-amino-6-phenylpyrimidin-4-yl)amino]-phenoxy}pyridin-2-yl)methyl]methanesulfonamide] is ≤ 500 nM.
Take `Nc1nc(Nc2ccc(Oc3ccnc(C(=O)NCCO)c3)cc2)cc(-c2ccccc2)n1` [Example 45, 4-[4-(2-Amino-6-phenylpyrimidin-4-ylamino)phenoxy]pyridine-2-carboxylic acid (2-hydroxyethyl)amide]: the IC50 was ≤ 500 nM.
Turning to `Nc1nc(Nc2ccc(Oc3ccnc(-c4nnn[nH]4)c3)cc2)cc(-c2ccccc2)n1` [Example 46, 6-phenyl-N^4-{4-[2-(1H-tetrazol-5-yl)pyridin-4-yloxy]phenyl}pyrimidine-2,4-diamine], the IC50 is ≤ 500 nM.
In the case of `Nc1nc(Nc2ccc(Oc3ccnc(Cl)c3)cc2)cc(-c2ccccc2)n1` [Example 48, N^4-[4-(2-Chloro-pyridin-4-yloxy)-phenyl]-6-phenyl-pyrimidine-2,4 diamine], the IC50 is ≤ 500 nM.
Still for that read-out and setting: the figure for `COC[C@@H]1CCCN1c1cc(Oc2ccc(Nc3cc(-c4ccccc4)nc(N)n3)cc2)ccn1` [Example 49, (S)—N^4-{4-[2-(2-Methoxymethylpyrrolidin-1-yl)pyridin-4-yloxy]phenyl}-6-phenylpyrimidine-2,4-diamine] is ≤ 500 nM; for `Nc1nc(Nc2ccc(Oc3ccnc(C(F)(F)F)c3)cc2)cc(-c2ccc(NC(=O)[C@@H](N)CO)cc2)n1` [Example 50, 2-amino-N-(4-{2-amino-6-[4-(2-trifluoromethylpyridin-4-yloxy)phenylamino]pyrimidin-4-yl}phenyl)-3-hydroxypropionamide] it is ≤ 500 nM; for `Nc1nc(Nc2ccc(Oc3ccnc(C(F)(F)F)c3)cc2)cc(-c2ccc(O)cc2)n1` [Example 51, 4-{2-amino-6-[(4-{[2-(trifluoromethyl)pyridin-4-yl]oxy}phenyl)amino]pyrimidin-4-yl}phenol] it is ≤ 500 nM.
As for `Nc1nc(Nc2ccc(Oc3ccnc(C(F)(F)F)c3)cc2)cc(-c2ccc(OS(N)(=O)=O)cc2)n1` [Example 52, sulfamic acid, 4-{2-amino-6-[4-(2-trifluoromethylpyridin-4-yloxy)phenylamino]pyrimidin-4-yl}phenyl ester], the IC50 was ≤ 500 nM.
As for `Nc1cc(Oc2ccc(Nc3cc(-c4ccccc4)nc(N)n3)cc2)ccn1` [Example 53, N^4-[4-(2-aminopyridin-4-yloxy)phenyl]-6-phenylpyrimidine-2,4-diamine], the IC50 is ≤ 500 nM.

These data come from patent publication US7582645B2, “Pyrimidine derivatives for treatment of hyperproliferative disorders” (Bayer Pharmaceuticals Corporation, priority 2003, dated 2009).
